Where only a bound is given, the exact number is not on record here.

The term melting point denotes the temperature of the solid-liquid transition. For the compound `O=C(Nc1ccc(Cl)cc1)c1cc(Cl)c2cccnc2c1O`, the melting point was 214 to 216 °C. Next, `O=[N+]([O-])c1oc2ccc(CN3CCOCC3)cc2c1-c1ccccc1`: 151 to 154 °C; `CC1=Nc2c(C)nn(CC(F)(F)F)c2C2=NC(C)CN12` (stereo not drawn): 91 to 95 °C. Compound `CNC1=NC2(O)c3ccc(OCC(F)(F)C(F)(F)C(F)(F)F)cc3CC2S1` (stereo not drawn) returned a melting point of 178 to 180 °C. The compound `CC(=O)OC1CSC(Oc2cccnc2-c2cccnc2)C(OC(C)=O)C1OC(C)=O` (stereo not drawn) gave a melting point of 70 °C. With `CCc1nc2c(cnn2CC)c(NC2CCOCC2)c1CNC(=O)c1cc(C)cc(C(=O)NCc2ccc(OC)c(Br)c2)c1` the figure was 123 to 126 °C. Next, `CCC(CC)n1nc(C)c2c(NN3CCc4cc(Br)cc(Br)c43)nc(C)nc21`: 190 to 191 °C. In the case of `NS(=O)(=O)c1ccc(C2=NNC(C(=O)O)C2)cc1` (stereo not drawn), the melting point lay in the range of 224 to 226 °C.

`COc1ccc(N2CCOCC2)c2sc(C(=O)NCC(=O)c3ccccc3)nc12` gave a melting point of 165 °C. Next, `CC(C)OC(=O)c1n[nH]c2c(=O)[nH]c3cc(Cl)ccc3c(=O)c12`: 291 °C; `N#CCC(=O)c1ccc[nH]1`: 79 to 81 °C; `CC(C)NCC(O)c1cc(CO)cc(OCc2ccccc2)c1` (stereo not drawn): 84 to 89 °C. With `O=C(N[C@H]1CCN(CCc2ccc(F)cc2)C1)C(c1cccs1)c1cccs1` the figure was 96 to 98 °C; with `COc1ccccc1COc1ccc(S(=O)(=O)c2ccc(C)nc2Nc2cc(F)c(N(C)C)cc2Cl)cc1`, 68 to 70 °C. With `N#Cc1ccc(OCc2ccsc2)cc1OC(C(=O)O)c1cccc(Cl)c1` (racemic) the figure was 134 to 136 °C. With `Fc1cc(F)c2c(c1)CC(n1c(-c3nnn[nH]3)c[nH]c1=S)CC2` (stereo not drawn), the melting point lay in the range of 214 to 215 °C. With `CCOC(=O)C(Cc1ccc(OC)cc1)c1cc2cc(Br)ccc2s1` (stereo not drawn) the figure was 62 to 65 °C; with `CCOC(=O)Cn1c(-c2ccc(C(F)(F)F)cc2)nc2cccnc21`, 147 to 148 °C; with `CCOc1c(C)c(N2CCN(c3ccc(C)cc3)CC2)c(C)c2c1OC(C)C2` (stereo not drawn), 96 to 98 °C. Next, `Cn1ccnc1Sc1ccc(Nc2c(C#N)cnc3cc(-c4ccc(CN5CCOCC5)cc4)ccc23)cc1Cl`: 148 to 150 °C; `CCNC(=O)c1c([Si](C)(C)C)sc2ccccc12`: 121 to 124 °C; `CCOc1ccccc1C(=O)SSc1ccc([N+](=O)[O-])cc1C(Cl)(Cl)Cl`: 79 to 80 °C. With `CC(C)(C)OC(=O)c1ncn2c1[C@@H]1CCCN1C(=O)c1c-2cccc1S(C)(=O)=O` the figure was 244 °C. Compound `O=C(O)c1c(NCc2ccccc2)nc2ccc(Br)cc2c1Cl` returned a melting point of 182 to 184 °C. With `CCN(c1cccc2cc(C(=O)NCCSC(c3ccccc3)(c3ccccc3)c3ccccc3)[nH]c12)S(=O)(=O)c1cccs1` the figure was 58 to 61 °C; with `CNC(=S)N(O)C(C)c1cc(C(C)(C)C)c(O)c(C(C)(C)C)c1` (stereo not drawn), 175 to 176 °C; with `O=C(NCc1ccccc1-c1ccccc1C(=O)NCCc1ccccn1)Nc1ccccc1`, 99 °C. Turning to `Cc1nnc(NCCNC2CN3CCC2CC3)c2cc3ccccn3c12` (stereo not drawn), the melting point is 205 to 208 °C. Next, `CCOP(=O)(COc1ccc(CO)cc1N)OCC`: 181 to 184 °C; `COc1ccc(-c2nc(N)sc2-c2cccnc2)cc1`: 265 to 266 °C. Next, `Cn1c(C(F)(F)F)cc(=O)n(-c2cc(Oc3ncccc3[N+](=O)[O-])c(Cl)cc2F)c1=O`: 177 to 179 °C; `NC(=O)c1nccc(-c2ccc(Oc3ccc(F)cc3)cc2)n1`: 180 to 182 °C. Compound `CCOCc1nc(N)c2nccnc2n1` had a melting point of 152 to 154 °C. With `CCCCc1nc2ccccc2n1Cc1ccc(C(=O)O)cc1F` the figure was 224 to 226 °C. With `CCOC(=O)N1CCN(c2ccc(-n3cnn(C(CC)C(O)c4ccc(Cl)cc4)c3=O)cn2)CC1` (stereo not drawn) the figure was 196 °C.

In turn, `CCCCCCCCSc1ccc(CC(NC(C)=O)(C(=O)OCC)C(=O)OCC)cc1` displayed a melting point of 82 to 84 °C. With `Cc1ccc(Cl)c(-c2nn(C(C)(C)C(=O)N(C)C)cc2C)c1` the figure was 106 to 108 °C.

On to `O=C1C2=C(CCCC2)C(=O)N1c1ccc(Cl)c2c1CC(CBr)O2` (stereo not drawn), for which the melting point lay within 134 to 136 °C. With `CCOC(=O)N1CCc2nc3c(C(F)(F)F)cccc3c(C)c2CC1` the figure was 136 °C; with `COc1ccc(Nc2cc(N3CCCC3)nc(N3CCCC3)n2)cc1`, 162 to 163 °C. Next, `CCCC(=O)Nc1n[nH]c2cc(-c3ccc(OC(F)(F)F)cc3)ccc12`: 234 °C; `O=c1[nH]c2cc(Cl)ccc2c(O)c1-c1ccccc1F`: more than 350 °C. Next, `NNc1ccc(OCc2ccccc2)cc1`: 101 to 103 °C; `Cc1ccn(-c2ccc(C(=O)N3Cc4cccnc4Nc4ccccc43)c(F)c2)n1`: 122 to 125 °C; `CC(CC(=O)O)C(=O)c1ccc(-n2ccnc2)cc1` (stereo not drawn): 181 to 182 °C.

With `CCCCCCCCCCCCCCCCCC(CCC(=O)O)(CCC(=O)O)[N+](=O)[O-]`, the melting point is 102 °C. With `O=C(O)c1cccc(N2CCN(CCc3ccccc3)CC2)c1F` the figure was 85.5 to 87.5 °C.

`CN1Cc2ccccc2N(C)S1(=O)=O` registered a melting point of 59 to 60 °C.

Take `NC(=O)C(Nc1ccccc1C(=O)C1CC1)c1c(Cl)cccc1Cl` (stereo not drawn): the melting point amounted to 196 °C. Next, `CCn1cc(C(=O)O)c(=O)c2cc(F)c(N3CCNC(CF)C3)cc21` (stereo not drawn): 177 to 180 °C; `CCCCOc1ccc2[nH]n(Cc3ccccc3)c(=O)c2c1`: 146 to 147 °C; `OCCCNc1cc(Nc2ccc(N3CCOCC3)cc2)ncn1`: 198 to 199 °C. With `Cc1cc(C(=O)N2CCCC(C)C2)ccc1[N+](=O)[O-]` (stereo not drawn) the figure was 82 to 82.8 °C; with `Cc1cc2nncn2nc1-c1ccccc1`, 188 to 190 °C; with `N#Cc1cc(N2CCN(CC[C@H]3CC[C@H](NS(=O)(=O)c4cccnc4)CC3)CC2)cc(C(F)(F)F)c1`, 194 to 195 °C. As to `O=C(O)c1ccccc1OCCN1CCC(c2cn(CC3CC3)c3cc(F)ccc23)CC1`, the melting point worked out at 97 °C.

With `Cc1cc(S(=O)(=O)N2CC(C)CC(C)C2)ccc1[N+](=O)[O-]` (stereo not drawn), the melting point was 133 to 138 °C. With `CCc1nc2c(nc1O)CCCC2` the figure was 152 to 153 °C. With `COC(=O)c1cc(N(C)C)cc(N(C)C)c1` the figure was 86 to 88 °C; with `O=c1[nH]c2cc(Cl)c(Cl)cc2nc1Cl`, more than 300 °C. The compound `N#Cc1ccc(OCCNc2ccc(C(=O)O)cc2)c2ccccc12` had a melting point of 254 to 256 °C. With `CN1C2CCCC1CN(c1ccc3cc([N+](=O)[O-])ccc3n1)C2` the figure was 166 °C; with `CC[Si](CC)(CC)c1ccc2c(c1)cc(C(=O)Nc1ccc(N3CCC3)nc1)n2Cc1cccc(F)c1`, 166 to 168 °C.

These data come from a melting point compilation (Tetko et al.; mined from patent text by program, amines drawn as free bases though some values may be those of a salt).
